For this assay, the target named is recombinant human MGAT2 (Homo sapiens (Human), UniProt Q3SYC2). The assay can be described thus: Measurement of human MGAT2 inhibitory activity. Format: biochemical. In short, it runs like this:
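RapidFire ESI-MS read-out of the diolein/diolein-d5 peak ratio gave % inhibition, with no-enzyme and full-enzyme wells as 100% and 0%. Reactions ran 1 h at room temperature at pH 7.4 (phosphate, 2 mmol/L DTT), using Flag-tagged human MGAT2 membranes from Sf9 cells and a substrate solution of 30 μmol/L 2-oleoylglycerol and 10 μmol/L oleoyl-CoA.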

[1] abbreviates: read-out: IC50 (concentration exhibiting 50% enzyme inhibition), Table 53.
The mark [2] stands for this setting: read-out: IC50 (concentration exhibiting 50% enzyme inhibition), Table 52.

Our source for the IC50 values is patent US11198695B2, “Fused ring derivative having MGAT-2 inhibitory activity” (Shionogi & Co., Ltd., priority 2017, dated 2021).

Molecules are shown by their SMILES. Where two headings read alike, the source gives them in different places.

Chain of recombinant human MGAT2 (Q3SYC2 whole entry): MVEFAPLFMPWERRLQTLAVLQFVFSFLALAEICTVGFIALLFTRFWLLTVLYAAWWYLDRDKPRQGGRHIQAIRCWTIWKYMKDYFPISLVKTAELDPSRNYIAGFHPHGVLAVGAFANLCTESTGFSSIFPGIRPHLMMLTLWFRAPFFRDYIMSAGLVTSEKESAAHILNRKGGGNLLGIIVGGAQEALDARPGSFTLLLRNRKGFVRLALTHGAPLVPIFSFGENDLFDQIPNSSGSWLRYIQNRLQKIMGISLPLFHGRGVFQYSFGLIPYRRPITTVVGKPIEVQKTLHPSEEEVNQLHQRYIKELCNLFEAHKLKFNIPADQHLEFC

For `Cc1ccc(-n2nc3c(c2NC(=O)CC#N)C(=O)N[C@@]2(CCOc4cc(OCC(F)(F)F)ccc42)C3)nc1` [II-263], under setting [1], the IC50 was 0.04 µM.
For `O=C(Nc1c2c(nn1CCC1CC1)C[C@]1(CCc3cc(OCC(F)(F)F)ccc31)NC2=O)c1cncs1` [Compound I-228], the IC50 under setting [2] turned out to be 0.028 µM.
`Cc1ccc(-n2nc3c(c2C(=O)NCC2(O)CC2)C(=O)N[C@@]2(CCc4cc(OCC(F)(F)F)ccc42)C3)nc1` [II-200]: the IC50 under setting [1] worked out at 0.00229 µM.
For the compound `CS(=O)(=O)CC(=O)Nc1c2c(nn1CCOC(F)(F)F)C[C@]1(CCc3cc(OCCCC(F)(F)F)ccc31)NC2=O` [Compound I-60], the IC50 under setting [2] came out at 0.094 µM.
As for `CS(=O)(=O)CC(=O)Nc1c2c(nn1Cc1ccon1)C[C@]1(CCc3cc(OCC(F)(F)F)ccc31)NC2=O` [Compound I-260], under setting [2], the IC50 is 0.49 µM.
Same read-out and setting: as for `CCOCCS(=O)(=O)NC(=O)c1c2c(nn1CCC1CC1)C[C@]1(CCc3cc(OCC(F)(F)F)ccc31)NC2=O` [Compound I-115], the figure is 0.064 µM.
Consider `Cc1ccc(-n2nc3c(c2C(=O)NCCS(N)(=O)=O)C(=O)N[C@@]2(CCc4cc(OCC(F)(F)F)ccc42)C3)cc1F` [II-209], for which, under setting [1], the IC50 was 0.0953 µM.
In the case of `CS(=O)(=O)CC(=O)Nc1c2c(nn1-c1ccc(F)c(F)c1)C[C@]1(CCOc3cc(OCC(F)(F)F)ccc31)NC2=O` [II-67], under setting [1], the IC50 turned out to be 0.00264 µM.
Still for that read-out and setting: under `N#Cc1ccc(-n2nc3c(c2C(=O)NC2CCNC2=O)C(=O)N[C@@]2(CCc4cc(OCC(F)(F)F)ccc42)C3)nc1` (stereo partly shown) [II-132] stands 0.193 µM.
Regarding `CS(=O)(=O)CC(=O)Nc1c2c(nn1CCCC(F)(F)F)C[C@]1(CCc3cc(OCCCC(F)(F)F)ccc31)NC2=O` [Compound I-206], the IC50 under setting [2] was 0.0024 µM.
On the same count and under the same terms, under `CC1(NC(=O)c2c3c(nn2CCC2CC2)C[C@]2(CCc4cc(OCC(F)(F)F)ccc42)NC3=O)COC1` [Compound I-88] stands 0.27 µM.
With `Cc1ccc(-n2nc3c(c2C(=O)NS(=O)(=O)CCC(F)(F)F)C(=O)N[C@@]2(CCc4cc(OCC(F)(F)F)ccc42)C3)nc1` [II-212], under setting [1], the IC50 came out at 0.0467 µM.
Still for that read-out and setting: as for `Cc1ccc(-n2nc3c(c2NC(=O)CS(C)(=O)=O)C(=O)N[C@@]2(CCc4cc(OCC(C)(F)F)ccc42)C3)nc1` [II-157], the figure is 0.00383 µM.
Still for that read-out and setting: under `Cc1ccc(-n2nc3c(c2NC(=O)CS(C)(=O)=O)C(=O)N[C@@]2(CCc4cc(OCC(F)(F)F)ccc42)C3)cc1F` [II-136] stands 0.00742 µM; under `CS(=O)(=O)CC(=O)Nc1c2c(nn1CCCCC(F)(F)F)C[C@]1(CCOc3cc(OCC(F)(F)F)ccc31)NC2=O` [II-25], 0.007 µM.
For the compound `CS(=O)(=O)CC(=O)Nc1c2c(nn1CCn1cccn1)C[C@]1(CCc3cc(OCCCC(F)(F)F)ccc31)NC2=O` [Compound I-59], the IC50 under setting [2] came out at 0.014 µM.
`CS(=O)(=O)CC(=O)Nc1c2c(nn1CCC1CC1)C[C@@]1(CCc3cc(OCCCC(F)(F)F)ccc31)NC2=O` [II-101]: the IC50 under setting [1] was 0.00125 µM.
The same measure, in the same setting: under `CS(=O)(=O)CC(=O)Nc1c2c(nn1CCC1CC1)C[C@@]1(CCc3cc(C4CC4)ccc31)NC2=O` [II-76] stands 0.006 µM.
In the case of `O=C1N[C@@]2(CCc3cc(OCC(F)(F)F)ccc32)Cc2nn(CCC3CC3)c(NC(=O)C3CS(=O)(=O)C3)c21` [Compound I-183], the IC50 under setting [2] worked out at 0.018 µM.
`Cc1ccc(-n2nc3c(c2NC(=O)C2(S(C)(=O)=O)CC2)C(=O)N[C@@]2(CCOc4cc(OCC(F)(F)F)ccc42)C3)nc1` [II-272]: the IC50 under setting [1] is 0.21 µM.
On to `O=C(NCc1c2c(nn1CCC1CC1)C[C@]1(CCc3cc(OCC(F)(F)F)ccc31)NC2=O)c1ccno1` [Compound I-152], for which the IC50 under setting [2] was 0.3 µM.
Turning to `Cc1ccc(-n2nc3c(c2C(=O)NCC(F)(F)F)C(=O)N[C@@](c2ccc(OCC(F)(F)F)cc2F)(C(F)(F)F)C3)nc1` [II-240], the IC50 under setting [1] was 0.0143 µM.
On the same count and under the same terms, as for `N#Cc1ccc(-n2nc3c(c2NC(=O)C2CCS(=O)(=O)C2)C(=O)N[C@@]2(CCc4cc(OCC(F)(F)F)ccc42)C3)nc1` (stereo partly shown) [II-91], the figure is 0.00279 µM; as for `CS(=O)(=O)CC(=O)Nc1c2c(nn1CCC1CC1)C[C@@]1(CCc3cc(N4CC(n5cccn5)C4)ccc31)NC2=O` [II-35], 0.048 µM; as for `Cc1ccc(-n2nc3c(c2C(=O)NS(=O)(=O)c2ccccc2)C(=O)N[C@@]2(CCc4cc(OCC(F)(F)F)ccc42)C3)nc1` [II-210], 0.0892 µM.
With `O=C1N[C@@]2(CCc3cc(OCC(F)(F)F)ccc32)Cc2nn(CCC3CC3)c(CNC(=O)C3(C(F)(F)F)CCC3)c21` [Compound I-158], the IC50 under setting [2] was 0.13 µM.
On the same count and under the same terms, under `CS(=O)(=O)CC(=O)Nc1c2c(nn1-c1ccc(F)c(F)c1)C[C@]1(CCc3cc(OCC(F)(F)F)ccc31)NC2=O` [Compound I-131] stands 0.0052 µM.
As to `CS(=O)(=O)CC(=O)Nc1c2c(nn1-c1ccc(C#N)cn1)C[C@]1(NC2=O)c2ccc(OCC(F)(F)F)cc2CC1(F)F` [II-87], the IC50 under setting [1] worked out at 0.00263 µM.
Same read-out and setting: under `CS(=O)(=O)CC(=O)Nc1c2c(nn1CCOCC(F)F)C[C@]1(CCOc3cc(OCC(F)(F)F)ccc31)NC2=O` [II-24] stands 0.032 µM.
Consider `CS(=O)(=O)CC(=O)Nc1c2c(nn1-c1ccon1)C[C@]1(CCc3cc(OCC(F)(F)F)ccc31)NC2=O` [II-107], for which, under setting [1], the IC50 came out at 0.0407 µM.
Consider `CS(=O)(=O)CC(=O)Nc1c2c(nn1-c1ccc(C#N)cn1)C[C@]1(CCc3cc(OCC(F)(F)F)cc(F)c31)NC2=O` [Compound I-162], for which the IC50 under setting [2] worked out at 0.0019 µM.
As for `CS(=O)(=O)CC(=O)Nc1c2c(nn1-c1ccc(F)c(F)c1)C[C@]1(CCOc3cc(C4CC4)ccc31)NC2=O` [II-224], the IC50 under setting [1] came to 0.00221 µM.
With `NS(=O)(=O)CCNC(=O)c1c2c(nn1CCCOC(F)F)C[C@]1(CCc3cc(OCC(F)(F)F)ccc31)NC2=O` [II-264], under setting [1], the IC50 worked out at 0.0161 µM.
In the case of `CS(=O)(=O)CC(=O)Nc1c2c(nn1CCC1CC1)C[C@]1(CCc3cc(CN4CC(F)(F)C4)ccc31)NC2=O` [Compound I-281], the IC50 under setting [2] turned out to be 0.072 µM.
The same measure, in the same setting: as for `Cc1ccnc(-n2nc3c(c2NC(=O)CS(C)(=O)=O)C(=O)N[C@@]2(CCc4cc(OCC(F)(F)F)ccc42)C3)c1` [Compound I-135], the figure is 0.0031 µM.
Still for that read-out and setting: as for `CS(=O)(=O)CC(=O)Nc1c2c(nn1-c1cccc(OC(F)(F)F)c1)C[C@]1(CCc3cc(OCC(F)(F)F)ccc31)NC2=O` [Compound I-126], the figure is 0.71 µM; as for `CS(=O)(=O)CC(=O)Nc1c2c(nn1-c1cc(Cl)cc(Cl)c1)C[C@]1(CCc3cc(OCC(F)(F)F)ccc31)NC2=O` [Compound I-128], 0.0405 µM.
Regarding `CS(=O)(=O)CC(=O)Nc1c2c(nn1C1CCCCC1)C[C@]1(CCOc3cc(OCC(F)(F)F)ccc31)NC2=O` [II-15], the IC50 under setting [1] amounted to 0.012 µM.
As for `CS(=O)(=O)CC(=O)Nc1nn(CCn2cccn2)c2c1C(=O)N[C@@]1(CCc3cc(OCCCC(F)(F)F)ccc31)C2` [Compound I-66], the IC50 under setting [2] was found to be 0.97 µM.
Consider `O=C1N[C@@]2(CCc3cc(OCC(F)(F)F)ccc32)Cc2nn(CCC3CC3)c(C(=O)NCC3(O)CCC3)c21` [Compound I-90], for which the IC50 under setting [2] came to 0.033 µM.
Same read-out and setting: under `CS(=O)(=O)CC(=O)Nc1c2c(nn1-c1ccc(F)cc1)C[C@]1(CCOc3cc(OCC(F)(F)F)ccc31)NC2=O` [Compound I-182] stands 0.0025 µM.
Take `N#Cc1ccc(-n2nc3c(c2C(=O)NCC(O)c2ccccn2)C(=O)N[C@@]2(CCc4cc(OCC(F)(F)F)ccc42)C3)nc1` (stereo partly shown) [II-129]: the IC50 under setting [1] stood at 0.202 µM.
The same measure, in the same setting: as for `Cc1ccc(-n2nc3c(c2C(=O)NCC(N)=O)C(=O)N[C@@]2(CCc4cc(OCC(F)(F)F)ccc42)C3)nc1` [II-196], the figure is 0.0187 µM.
Regarding `CS(=O)(=O)NCc1c2c(nn1CCC1CC1)C[C@]1(CCc3cc(OCCCC(F)(F)F)ccc31)NC2=O` [Compound I-22], the IC50 under setting [2] came out at 0.19 µM.
For `CS(=O)(=O)CC(=O)Nc1c2c(nn1-c1ccc(C#N)cn1)CC1(CN(c3ccc(C(F)(F)F)cc3F)C1)NC2=O` [II-53], under setting [1], the IC50 is 0.014 µM.
The same measure, in the same setting: as for `CS(=O)(=O)CC(=O)Nc1c2c(nn1-c1ccc(C#N)cn1)C[C@]1(CCc3cc(OCC(F)(F)F)c(F)cc31)NC2=O` [II-144], the figure is 0.00105 µM.
On to `CS(=O)(=O)CC(=O)Nc1c2c(nn1CCC1CCCCC1)C[C@]1(CCc3cc(OCCCC(F)(F)F)ccc31)NC2=O` [Compound I-57], for which, under setting [2], the IC50 came to 0.01 µM.
Still for that read-out and setting: as for `CS(=O)(=O)CC(=O)Nc1c2c(nn1-c1cnccn1)C[C@@]1(CCc3cc(OCC(F)(F)F)ccc31)NC2=O` [Compound I-271], the figure is 0.78 µM.
Consider `Cc1cc(-n2nc3c(c2NC(=O)CS(C)(=O)=O)C(=O)N[C@@]2(CCc4cc(OCC(F)(F)F)ccc42)C3)nn1C` [II-205], for which, under setting [1], the IC50 was 0.00378 µM.
For `O=C(Nc1c2c(nn1CCC1CC1)C[C@]1(CCc3cc(OCC(F)(F)F)ccc31)NC2=O)c1cocn1` [Compound I-231], under setting [2], the IC50 was determined as 0.0475 µM.
On the same count and under the same terms, under `O=C(CC(F)F)Nc1c2c(nn1CCC1CC1)C[C@]1(CCc3cc(OCCCC(F)(F)F)ccc31)NC2=O` [Compound I-20] stands 0.021 µM; under `COc1cccc(-n2nc3c(c2NC(=O)CS(C)(=O)=O)C(=O)N[C@@]2(CCc4cc(OCC(F)(F)F)ccc42)C3)c1` [Compound I-244], 0.11 µM; under `CS(=O)(=O)CC(=O)Nc1c2c(nn1-c1cc(F)cc(F)c1)C[C@]1(CCc3cc(OCC(F)(F)F)ccc31)NC2=O` [Compound I-127], 0.105 µM.
Same read-out and setting: as for `O=C(NCc1c2c(nn1CCC1CC1)C[C@]1(CCc3cc(OCC(F)(F)F)ccc31)NC2=O)c1ncco1` [Compound I-150], the figure is 0.1 µM.
Still for that read-out and setting: under `CS(=O)(=O)CC(=O)Nc1c2c(nn1-c1ccccn1)C[C@]1(CCc3cc(OCC(F)(F)F)cc(F)c31)NC2=O` [Compound I-185] stands 0.0063 µM; under `CC(C)(C#N)C(=O)NCc1c2c(nn1CCC1CC1)C[C@]1(CCc3cc(OCC(F)(F)F)ccc31)NC2=O` [Compound I-160], 0.078 µM.
Consider `CS(=O)(=O)CC(=O)Nc1c2c(nn1-c1ccc(F)c(F)c1)C[C@]1(NC2=O)c2ccc(OCC(F)(F)F)cc2CC1(F)F` [II-88], for which, under setting [1], the IC50 was determined as 0.00367 µM.
`Cn1cc(CC(=O)Nc2c3c(nn2CCC2CC2)C[C@]2(CCc4cc(OCCCC(F)(F)F)ccc42)NC3=O)cn1` [Compound I-30]: the IC50 under setting [2] worked out at 0.175 µM.
